Experimental data from patent US20240277851A1, “siRNA DELIVERY VECTOR” (COUNCIL OF SCIENTIFIC & INDUSTRIAL RESEARCH, priority 2021, published 2024).

How the values were obtained:
[1] = test system: MDA-MB-231 breast cancer cells; assay: Trypan blue dye exclusion cell viability, MDA-MB-231; assay type: cell-based; settings: MDA-MB-231, 24 h and 48 h, FIG. 1A
Description: FIG. 1: Mito-Esc dose- and time-dependently induces breast cancer cell death without affecting normal cell viability. (A) MDA-MB-231 breast cancer cells were treated with various concentrations of Mito-Esc (1.25-7.5 μM). Cell viability was measured by trypan blue dye exclusion assay at 24 h and 48 h. (B) Same as A, except that cells were treated with parent Esc (5-50 μM). (C) Same as A, except that MCF10A (normal mammary epithelial) cells were treated with Mito-Esc (5-50 μM).
MDA-MB-231 (a Triple negative breast cancer cell line, ATCC) and MCF-10A cells (normal mammary epithelial cells, ATCC) were grown in Dulbecco's Modified Eagle's medium (DMEM) containing 10% FBS, 1% (v/v) Sodium Pyruvate (100 mM), Sodium bicarbonate (26 mM), L-glutamine (4 mM), penicillin (100 units/ml), and streptomycin (100 μg/ml). Cells were maintained in an incubator at 37° C. in a humidified atmosphere of 5% CO2 and 95% air.
To evaluate cytotoxicity of the Mito-Esc or Mito-Esc lipoplexes with siMnSOD, a trypan blue dye exclusion assay was used. Briefly, cells were seeded in a 12-well plate at a density of 3×10^4 cells per well and cultured overnight before transfection. […] The cell suspension (10 μl) was mixed with an equal amount of trypan blue and counted using an automated cell counter (Countess, Life Technologies). […]

[2] = Scanning and transmission electron microscopy of nanoparticles; assay type: physicochemical; settings: spherical shaped nanoparticles
Description: Transmission electron microscopy studies were performed on a Tecnai T12 microscope (FEI) at 120 kV, and images were taken using an SIS CCD camera; Samples were negatively stained with ammonium molybdate on 200 or 400 mesh carbon-coated copper grids (Ted Pella, Inc.). Before recording micrographs, the grids were air dried.
Field emission scanning electron microscopic (FESEM) analysis of a Mito-Esc nanoparticle was performed on a Carl Zeiss SIGMA HD field-emission scanning electron microscope.
(§1) The self-assembling properties of Mito-Esc were explored. The particle size of an aqueous solution (1% EtOH) of Mito-Esc was measured using Dynamic light scattering (DLS). Mito-Esc formed nanosized particles of size 166±30 nm and surface charge of 33±0.4 mV (FIG. 2A). The size and morphology of self-assembled nanoparticles of Mito-Esc was investigated by scanning and by transmission electron microscopy respectively. Mito-Esc formed spherical shaped nanoparticles of <200 nm (FIGS. 2B & 2C).

MDA-MB-231 cells = assay: Intracellular delivery of Cy-5 siRNA by confocal imaging, MDA-MB-231; assay type: cell-based; settings: MDA-MB-231, Cy-5 siRNA 40 nM, 24 h
Description: (§2) FIG. 5: Detection of intracellular delivery of Cy-5 siRNA by Mito-Esc using confocal imaging. MDA-MB-231 cells were transfected with Cy-5 labelled siRNA (40 nM) with indicated delivery systems for 24 h. Transfection efficacy was evaluated using Confocal Microscopy. Cy-5 fluorescence in the cytosol is shown in blue color (Scale bar 10X). Briefly, MDA-MB-231 cells were seeded on a coverslip in 12-well plates at a density of 3×10^4 cells per well in 1 mL complete DMEM and cultured for 12 h. Fluorescent (Cy-5) siRNA was complexed either with lipofectamine-2000 (positive control) or with Mito-Esc (2.5 μM) or parent esculetin (2.5 μM) or with different cationic lipids in serum free DMEM medium for 30 min before addition into the plates. These lipoplexes were added to the cells and incubated for 6 h. After that, cells were washed twice with PBS and fixed with 4% paraformaldehyde for 15 min. Finally, slides were mounted and the cells were imaged using a confocal microscope. Florescent labeled siRNA with Mito-Esc lipoplexes were prepared as described above and incubated with MDA-MB-231 cells for 24 h. The cells were stained by DAPI to stain the nucleus. The cells were mounted and observed under confocal microscope (Olympus, Tokyo, Japan).

[3] = test system: MCF-7 (ER+ve breast) cancer cells; assay: Sulforhodamine B cytotoxicity, MCF-7; assay type: cell-based; settings: MCF-7, 24 h
Description: (§3) Cytotoxicity of Mito-Esc on different cancer cell lines HeLa (cervical), HepG2 (liver), MCF-7 (ER+ve breast), A549 (lung), DU-145 (prostate) cancer cells and MCF-10A (normal mammary epithelial cells) were determined by treating with Mito-Esc (0.5-100 μM) for 24 h and cell viability was measured by Sulforhodamine B assay.

MCF-10A cells = assay: Intracellular delivery of Cy-5 siRNA by confocal imaging, MCF-10A; assay type: cell-based
Description: FIG. 6: Comparison of intracellular delivery of Cy-5 siRNA using confocal imaging. MCF-10A cells were transfected with Cy-5 labelled siRNA using different delivery mechanisms. Transfection efficacy was evaluated using Confocal Microscopy. Cy-5 fluorescence in the cytosol is shown in blue.
as §2, with “Briefly,” for “FIG. 5: Detection of intracellular delivery of Cy-5 siRNA by Mito-Esc using confocal imaging. MDA-MB-231 cells were transfected with Cy-5 labelled siRNA (40 nM) with indicated delivery systems for 24 h. Transfection efficacy was evaluated using Confocal Microscopy. Cy-5 fluorescence in the cytosol is shown in blue color (Scale bar 10X). Briefly,”

[4] = test system: MDA-MB-231 cells in mammary fat pad; assay: In-vivo orthotopic MDA-MB-231 tumor model; settings: SCID mice, i.p. 3 and 6 mg/kg for two weeks
Description: Inoculation of MDA-MB-231 cells into mammary fat pad of SCID mice: 6-week-old female SCID mice were used for the experiment. Initially, 10 nM Qtracker labeling solution (Qtracker Cell Labeling Kit, Invitrogen Q25071MP) was prepared by pre-mixing 10 μL each of Component A and Component B in a 1.5 mL microcentrifuge tube and incubated for 5 minutes at room temperature. This mixture was added to 0.2 mL of fresh complete growth medium and vortexed for 30 seconds and added to a 75-cm2 tissue culture flask containing MDA-MB-231 cells and incubated in a 37° C., 5% CO2 incubator overnight. Sub-confluent labeled cells were harvested and counted.
Cells (1×10^6) were suspended in 0.1 ml of serum free medium. To this 0.1 ml of matrigel was added and gently mixed to get a uniform cell suspension. The SCID mice were anesthetized with ketamine/xylazine cocktail (50 μL/20 g mice) and each mouse was implanted with above mentioned 1×10^6 Q-Tracker labelled MDA-MB-231 cells into the 4th pair of mammary fat pad orthotopically and sutured the fat pad after the inoculation of cells. The incision site was dressed with povidone-iodine to prevent infection every day until the incision healed. Mice were checked to see development of tumors and treatment began once the tumors reached a volume of ≥300 mm^3. […] On the day of sacrifice, tumor volumes were measured using Vernier calipers. […]

[5] = Size and surface charge of Mito-Esc nanoparticles (DLS, zeta potential); assay type: physicochemical; settings: aqueous solution (1% EtOH)
Description: The size (hydrodynamic diameter) and the surface charge (zeta potentials) of a Mito-Esc nanoparticle were measured by photon correlation spectroscopy and the electrophoretic mobility on a Zetasizer 3000HSA (Malvern, UK). The size was measured in deionized water with a sample refractive index of 1.33, a viscosity of 0.88 cP and a temperature of 25° C. The size was measured in triplicate. The zeta potential was measured using the following parameters: viscosity, 0.88 cP; dielectric constant, 78.5, and temperature, 25° C.
as §1

[6] = test system: DU-145 (prostate) cancer cells; assay: Sulforhodamine B cytotoxicity, DU-145; assay type: cell-based; settings: DU-145, 24 h
Description: as §3

A549 (lung) cancer cells = assay: Sulforhodamine B cytotoxicity, A549; assay type: cell-based; settings: A549, 24 h
Description: as §3

[7] = test system: HeLa (cervical) cancer cells; assay: Sulforhodamine B cytotoxicity, HeLa; assay type: cell-based; settings: 24 h
Description: as §3

[8] = test system: HepG2 (liver) cancer cells; assay: Sulforhodamine B cytotoxicity, HepG2; assay type: cell-based; settings: HepG2, 24 h
Description: as §3

[9] = test system: MCF-10A (normal mammary epithelial cells); assay: Sulforhodamine B cytotoxicity, MCF-10A; assay type: cell-based; settings: 24 h
Description: as §3

MnSOD = MnSOD gene silencing by immunoblotting; assay type: cell-based; settings: MDA-MB-231, siMnSOD 40 nM, 48 h
Description: FIG. 4: Mito-Esc/siMnSOD complex by depleting MnSOD levels exacerbates Mito-Esc-induced breast cancer cell death. (A) MDA-MB-231 cells were incubated either with Mito-Esc/siMnSOD (40 nM) complex or with lipofectamine-2000/siMnSOD complex for 48 h and cell viability was measured by trypan blue dye exclusion assay. (B) MDA-MB-231 cells were transfected with siMnSOD (40 nM) with indicated delivery systems for 48 h and MnSOD protein levels were measured by immunoblotting. Parenthesis indicates the relative expression of MnSOD normalized to GAPDH (loading control).
At the end of the treatments, cell pellets were lysed in a RIPA buffer containing protease inhibitor cocktail, phosphatase inhibitor cocktail-2, 3. Proteins were resolved by SDS-PAGE and blotted onto a nitrocellulose membrane and blocked with 5% bovine serum albumin, washed, and incubated with primary antibodies (1:1000) over night at 4° C. The membranes were then washed and incubated for 1 h with anti-rabbit/mouse IgG horseradish peroxidase linked secondary antibodies (1:5000). ECL reagent (Amersham GE) was applied on the membrane prior to developing with a chemiluminescent system (Bio-Rad).
Cells were cultured in 12-well plates at a density of 3×10^4 cells per well (containing a glass coverslip the day before use). […]

siRNA = assay: Agarose gel electrophoresis retardation assay (siRNA binding); settings: earlier findings, FIG. 2D; ratios 1:1 to 7:1
Description: Gel electrophoresis was performed with agarose gel (1.5% w/v) in tris-acetate-EDTA buffer (40 mM) with one drop of ethidium bromide added (concentration of EtBr stock solution: 0.625 mg/ml in H2O), at 100 V for 30 min. The siRNA lipoplexes were prepared by complexing siRNA with Mito-Esc, Mito-isoscopoletin and octyl TPP cation at described P^+/P^− ratios. The samples were incubated for 30 min at room temperature prior to addition into a well. The siRNA bands were visualized under UV illumination at 365 nm.
Mito-Esc nanoparticle solutions were prepared at various concentrations according to the desired final P+:P− charge ratio. Twenty μL solution of the Mito-Esc/siRNA complex was prepared to maintain a constant amount of siRNA in each solution (1 μg in 10 μL), and varying the amount of Mito-Esc according to the P+:P− charge ratio. The prepared mixtures were gently vortexed for 5 min. and incubated for 30 min at room temperature for complex formation.
The efficiency of Mito-Esc to bind siRNA was checked by agarose gel electrophoresis. Also, in order to assess the importance of hydrogen bonding in forming the stable siRNA complexes, Mito-isoscopoletin was synthesized by protecting the dihydroxy group with methyl group. Octyl TPP cation was used as a negative control.

Compound	concentrations causing dose-dependent cell death [1] [µM]	nanoparticle size by SEM/TEM [2] [nm]	intracellular delivery of Cy-5 siRNA (MDA-MB-231 cells)	IC50 [3] [µM]	efficiency of siRNA delivery (MCF-10A cells)	breast cancer progression (tumor volume, weight) [4]	particle size (DLS) [5] [nm]	surface charge [5] [mV]	IC50 [6] [µM]	IC50 (A549 (lung) cancer cells) [µM]	IC50 [7] [µM]	IC50 [8] [µM]	IC50 [9] [µM]	MnSOD protein levels (MnSOD)	P+/P− charge ratios at which siRNA is bound (migration retarded) (siRNA)
O=c1cc(CCCCCCCC[P+](c2ccccc2)(c2ccccc2)c2ccccc2)c2cc(O)c(O)cc2o1 [Mito-Esc, (8-(6,7-dihydroxy-2-oxo-2H-chromen-4-yl)octyl) triphenylphosphonium]	1.5 to 7.5	< 200	significantly caused the intracellular delivery of Cy-5 siRNA	4.8	lower than Lipofectamine-2000	regress breast cancer progression	166±30	33±0.4	15.5	1.8	4.9	10	> 100	–	–
O=c1ccc2cc(O)c(O)cc2o1 [parent esculetin, esculetin]	–	–	failed to deliver the Cy-5 siRNA intracellularly	–	–	–	–	–	–	–	–	–	–	neither parent esculetin nor octyl TPP cation complexes were able to decrease MnSOD expression	–
(8-(6,7-dimethoxy-2-oxo-2H-chromen-4-yl)octyl)triphenylphosphonium [Mito-isoscopoletin]	–	–	failed to deliver the Cy-5 siRNA intracellularly	–	–	–	–	–	–	–	–	–	–	–	did not bind the siRNA
